Laboratory results taken from patent publication US7425534B2, “Compositions and methods for modulating muscle cell and tissue contractility” (The Trustees of the University of Pennsylvania, priority 2000, dated 2008).

Test system: rat aortic rings
Test: Phenylepherine (PE)-induced contraction of isolated rat aortic rings (isometric tension)
Type: cell-based
Excerpt: Male Sprague Dawley rats (250-275 g) were sacrificed by exsanguination and thoracic aortae were removed with care to avoid damage to the endothelium, dissected free of fat and connective tissue, and cut into transverse rings, each 5 mm in length (Kyong et al., 1992, Br. J. Pharmacol. 107:983-990; Yohtaro et al., 1987, Eur. J. Pharmacol. 131:75-78; Chang et al., 1992, Br. J. Pharmacol. 107:983-990; Oyama et al., 1986, Eur. J. Pharmacol. 132:75-78). The tissues were maintained in an oxygenated (95% O2; 5% CO2) solution of Krebs-Henseliet (KH) buffer (144 millimolar NaCl, 5.9 millimolar KCl, 1.6 millimolar CaCl2, 1.2 millimolar MgSO4, 1.2 millimolar KH2PO4, 25 millimolar NaHCO3, and 11.1 millimolar D-glucose). The aortic rings were mounted to record isometric tension in a 10 milliliter bath containing KH solution under continuous aeration. The aortic rings were equilibrated for 1.5 hours at 37° C. and maintained under a resting tension of 2 g throughout the experiment. Each aortic ring was then contracted by adding phenylepherine (PE) in stepwise increments raising the concentration of PE from 10^−10 molar to 10^−5 molar. […] In every experiment, aortic rings exposed to KH buffer alone were analyzed in parallel as controls. Isometric tension was evaluated using a force displacement transducer and recorded online using a computerized system (ExperimentiaAE, Budapest, Hungary).

CNC[C@H](O)c1cccc(O)c1 [PE, phenylepherine, reference compound]
EC50 (PE alone, K-H buffer, no uPA species): 29 nM

ATF: amino terminal fragment of urokinase, amino acids 1-135, growth factor domain plus kringle, SEQ ID NO:4
Contractility enhancing activity in the presence of suPAR (10 nM ATF + 10 nM suPAR (FIG. 3)): abolished
Potency at enhancing vascular smooth muscle tissue contractility relative to tcuPA (compare FIGS. 2 and 3): 6 fold

GFD: growth factor domain of uPA which binds to uPAR, SEQ ID NO:2 (SNELHQVPSNCDCLNGGTCVSNKYFSNIHWCNCPKKFGGQHCEIDKS; listed as Homo sapiens)
Effect upon PE-induced aortic contraction / vasoconstriction (10 nM uPA species (FIGS. 5A, 5B; GFD 10 nanomolar)): did not enhance contractility

B1: uPA kringle: kringle domain of uPA, amino acids 47-135, SEQ ID NO:1 (protein, listed as Homo sapiens)
chain: KTCYEGNGHFYRGKASTDTMGRPCLPWNSATVLQQTYHAHRSDALQLGLGKHNYCRNPDNRRRPWCYVQVGLKPLVQECMVHDCADGK
Direct induction of vasoconstriction (uPA kringle without PE effect (FIG. 4)): did not induce vasoconstriction directly
